Assay results published in patent US20230113802A1, “COMPOSITION AND METHOD TO PREPARE LONG-ACTING INJECTABLE SUSPENSION CONTAINING MULTIPLE CANCER DRUGS” (University of Washington, priority 2020, published 2023).
Like-named read-outs stand apart in the source and are kept apart here. One block for each compound: values may come before it.

Key:
[1] = GT localization in healthy versus 4T1 tumor bearing lung tissue; assay type: in vivo, BALB/c mice; conditions: for concentration at 1 h / concentration at 24 h / Kp at 1 h: female, BALB/c, mouse, intravenous; for concentration at 24 h: 24 hours after DcNP; for Kp at 1 h: lung/plasma, read-out: Lung/Plasma Ratio
Method: Female BALB/c mice were injected with 2×10^5 4 T1 metastatic breast cancer cells that express luciferase as a marker intravenously by tail vein on day 0. Stable expression of luciferase in these cells allows for bioluminescent monitoring of tumor growth and metastasis. Over a 14-day period, mouse behavior and health conditions were monitored daily and body weight measurements were taken every 2 days. […] The bioluminescence imaging was acquired through a XENOGEN IVIS 200 imaging system (PerkinElmer, Waltham, Mass.). The bioluminescence imaging parameters for live mice were set as follows: field of view, 24; excitation filter, closed; emission filter, open; exposure time, 180 sec; binning factor, 4; f/stop, 2. Bioluminescence intensity from mice were integrated using Live Image software (PerkinElmer, Waltham, Mass.). Mice were then intravenously administered GT in DcNPs at a dose of 50 mg/kg G and 5 mg/kg T or the same dose of drug in control suspension (CrEL) and sacrificed at fixed time points.
To determine whether DcNPs enhance GT distribution into target tissues, namely cancer nodules, the differential localization of GT in DcNP or CrEL form in healthy versus cancer nodule bearing mice was investigated. Since lungs are a common metastatic site for breast cancer disease progression, a model for metastasis that forms cancer nodules in the lungs was used. Cancer nodules were established in female BALB/c mice via intravenous inoculation of syngeneic breast cancer cells (4T1). […] Once nodules were established and confirmed with IVIS imaging, mice were administered with GT in either DcNP or conventionally solubilized form at equivalent doses (50/5 mg/kg, GT) and euthanized at pre-determined time intervals. Nodule-free and nodule-bearing lungs were harvested, and lung tissue drug concentrations were compared in these two groups.

[2] = Pharmacokinetic study of GT in DcNPs compared to CrEL (Example 2), plasma G, T and dFdU; assay type: in vivo, BALB/c mice; conditions: for concentration at 3 h / MRT / Vd / AUC(0-inf) / C0: female, BALB/c, mouse, plasma; for concentration at 3 h: intravenous; for MRT / Vd / AUC(0-inf) / C0: iv; for MRT / Vd: 5 mg/kg; for MRT: read-out: MRT (mean residence time); for Vd: read-out: Vss; for C0: read-out: C0 (concentration at time 0, back extrapolated)
From the text: Drugs extracted from biological matrices such as plasma or tissue homogenates were quantified by a Shimadzu HPLC system coupled to a 3200 QTRAP mass spectrometer (Applied Biosystems, Grand Island, N.Y.). The HPLC system consisted of two Shimadzu LC-20A pumps, a DGU-20A5 degasser, and a Shimadzu SIL-20AC HT autosampler. The mass spectrometer was equipped with an electrospray ionization (ESI) TurbolonSpray source. The system was operated with Analyst software, version 1.5.2 (ABSciex, Framingham, Mass.). Chromatographic separation of G and T was achieved using a Synergi column (100×2.0 mm; 4-μm particle size) (Phenomenex, Torrance, Calif.) with an inline C8 guard column (4.0×2.0 mm) also from Phenomenex. The flow rate was set to 0.5 mL/min with a 5 μl sample injection volume. The mobile phase for separation consisted of pump A (20 mM Ammonium Acetate in water) and B (Reagent Alcohol). […] The needle was washed with isopropanol after each injection. Analytes were monitored using multiple-reaction monitoring (MRM) for positive ions.
Statistical comparisons were performed using 2-sided t-tests with Welch's correction for unequal variances. Significance probability α was set at 0.05. Pharmacokinetic parameters from non-compartmental analysis were calculated using the trapezoidal rule and relevant pharmacokinetic equations shown in Table 3.

[3] = at 25° C.; cited from earlier work
[4] = Pharmacokinetics of venetoclax-zanubrutinib DcNP's versus free drug in mice; assay type: in vivo, BALB/C mice; conditions: for AUC: female, BALB/C, mouse, plasma; for time detectable in plasma: following administration of the nanoparticles
From the text: To quantify drug concentrations (both DcNP-bound and free drug), an extraction protocol was established to quantify venetoclax and zanubrutinib. In short, drug was solubilized by diluting the sample into ethyl acetate, liberating it from either the DcNP lipid matrix, mouse plasma, or both. Following centrifugation to remove organic material, the samples were dried with nitrogen gas, reconstituted in acetonitrile, and loaded onto an LC-MS/MS. Drug concentrations were quantified by comparing sample data with standard curves prepared from untreated mouse plasma spiked with known amounts of drug.
Separations were carried out on a Synergi column (100×2.0 mm) (Phenomenex, Torrance, USA). A C8 guard column (4.0×2.0 mm) was used (Phenomenex, USA). The separations were done under ambient temperature, and the flow rate was set to 0.55 ml/min. The mobile phase for the separations consisted of buffers A (water with 20 mM ammonium acetate) and B (acetonitrile). The single mobile phase ran for five minutes, and it consisted of 25% buffer A and 75% buffer B.
All animal procedures complied with and were approved by the University of Washington Institutional Animal Care and Use Committee. Female BALB/C mice were used, originally obtained from Charles River Laboratories (Wilmington, Mass.). Mice were kept under pathogen-free conditions, exposed to a 12 h light/dark cycle, and received food ad libitum. Three groups of three mice each were administered ABT-199 and BGB-3111: (1) the first group received a 180 μL intravenous injection of 600 μg ABT-199 and 600 μg BGB-3111 in 0.9% NaCl, 20 mM NaHCO3 buffer with trace DMSO and Cremophor EL as solubilizing agents, (2) the second group received an intravenous injection of ABT-199 and BGB-3111 DcNP's in equivalent volume and drug molar concentration as the first group, and (3) the third group received a subcutaneous injection of ABT-199 and BGB-3111 DcNP's in the inner right leg. Plasma was collected at select time points, then extracted and analyzed by HPLC-MS/MS using the previously established protocol to determine plasma concentrations of drug over time.

[5] = cited from earlier work
[6] = Control (CrEL suspension), 50/5 mg/kg G/T IV, mice
[7] = GT DcNP, 50/5 mg/kg G/T IV, mice
[8] = iv, 600 ug, intravenous free drug injection (600 μg each drug)
[9] = iv, 600 ug, intravenously administered DcNP's
[10] = sc, subcutaneous injection of DcNP's, plasma over one week

Structure (SMILES): CC(=O)O[C@H]1C(=O)[C@@]2(C)[C@H]([C@H](OC(=O)c3ccccc3)[C@]3(O)C[C@H](OC(=O)[C@H](O)[C@@H](NC(=O)c4ccccc4)c4ccccc4)C(C)=C1C3(C)C)[C@]1(OC(C)=O)CO[C@@H]1C[C@@H]2O [Paclitaxel, [(1S,2S,3R,4S,7R,9S,10S,12R,15S)-4,12-diacetyloxy-15-[(2R,3S)-3-benzamido-2-hydroxy-3-phenylpropanoyl]oxy-1,9-dihydroxy-10,14,17,17-tetramethyl-11-oxo-6-oxatetracyclo[11.3.1.0^3,10.0^4,7]heptadec-13-en-2-yl] benzoate]
lung concentration, cancer nodule bearing mice times greater than healthy mice ([1]; 24 hours after GT DcNP): 7 times | concentration at 1 h ([1]; lung, 1 hour after DcNP, 4T1 tumor bearing mice, read-out: Lung): 900 ± 500 ng/g | concentration at 1 h ([1]; lung, 1 hour after DcNP, Healthy mice, 50/5 mg/kg GT IV, read-out: Lung): 600 ± 400 ng/g | concentration at 1 h ([1]; lung, 1 hour after control (CrEL), 4T1 tumor bearing mice, 50/5 mg/kg GT IV, read-out: Lung): 1700 ± 500 ng/g | concentration at 1 h ([1]; lung, 1 hour after control (CrEL), Healthy mice, 50/5 mg/kg GT IV, geometric mean ± SD, read-out: Lung): 1000 ± 300 ng/g | concentration at 24 h ([1]; lung, 4T1 tumor bearing mice, read-out: Lung): 400 ± 100 ng/g | concentration at 24 h ([1]; lung, Healthy mice, read-out: Lung): 60 ± 10 ng/g | Kp at 1 h ([1]; 1 hour after DcNP, 4T1 tumor bearing mice): 0.4 ± 0.2 | Kp at 1 h ([1]; 1 hour after DcNP, Healthy mice): 0.4 ± 0.01 | Kp at 1 h ([1]; 1 hour after control (CrEL), 4T1 tumor bearing mice): 2.5 ± 0.8 | Kp at 1 h ([1]; 1 hour after control (CrEL), Healthy mice): 3.3 ± 1.2 | concentration at 1 h ([1]; plasma, 1 hour after DcNP, 4T1 tumor bearing mice, read-out: Plasma): 2200 ± 1100 ng/mL | concentration at 1 h ([1]; plasma, 1 hour after DcNP, Healthy mice, read-out: Plasma): 1400 ± 900 ng/mL | concentration at 1 h ([1]; plasma, 1 hour after control (CrEL), 4T1 tumor bearing mice, read-out: Plasma): 700 ± 100 ng/mL | concentration at 1 h ([1]; plasma, 1 hour after control (CrEL), Healthy mice, read-out: Plasma): 300 ± 50 ng/mL | plasma concentration at 3 hours, DcNP times greater than CrEL ([2]; 50/5 mg/kg G/T IV, mice): 3.3 times | Dose/AUC (apparent clearance) [2, 6]: 38.3 mL/h | T1/2,app [2, 6]: 1.8 h | Dose/AUC (apparent clearance) [2, 7]: 10.2 mL/h | T1/2,app [2, 7]: 2.0 h | concentration at 3 h ([2]; after GT DcNP dosing, 50/5 mg/kg G/T IV, mice): 643 ng/mL | concentration at 3 h ([2]; after control CrEL dosing, 50/5 mg/kg G/T IV, mice): 194 ng/mL | MRT [2, 6]: 1 h | Vd [2, 6]: 0.0356 L | MRT [2, 7]: 1 h | Vd [2, 7]: 0.01 L | AUC(0-inf) [2, 6]: 2610 ng·h/mL | C0 [2, 6]: 17700 ng/mL | AUC(0-inf) [2, 7]: 9810 ng·h/mL | C0 [2, 7]: 13900 ng/mL | time over which concentrations in plasma were detected ([2]; mice administered GT DcNPs, 48-hour study): ≤ 6 h | plasma concentration by 24 hours ([2]; mice treated with the CrEL control formulation): fell below the detection limit

AUC of subcutaneous DcNP's compared to intravenously delivered free drug (ratio) [4]: over 2.62 | AUC [4, 8]: 88800 ng·h/mL | AUC [4, 9]: 216000 ng·h/mL | AUC [4, 10]: 232000 ng·h/mL | time detectable in plasma [4]: up to seven days
Structure (SMILES): CC1(C)CCC(CN2CCN(c3ccc(C(=O)NS(=O)(=O)c4ccc(NCC5CCOCC5)c([N+](=O)[O-])c4)c(Oc4cnc5[nH]ccc5c4)c3)CC2)=C(c2ccc(Cl)cc2)C1 [Venetoclax, 4-[4-[[2-(4-chlorophenyl)-4,4-dimethylcyclohexen-1-yl]methyl]piperazin-1-yl]-N-[3-nitro-4-(oxan-4-ylmethylamino)phenyl]sulfonyl-2-(1H-pyrrolo[2,3-b]pyridin-5-yloxy)benzamide]
Water solubility [3]: 0.933 µg/mL | log P [5]: 6.92

AUC of subcutaneous DcNP's compared to intravenously delivered free drug (ratio) [4]: > 5.92 | AUC [4, 8]: 8300 ng·h/mL | AUC [4, 9]: 11300 ng·h/mL | AUC [4, 10]: 49000 ng·h/mL | time detectable in plasma [4]: less than one day
Structure (SMILES): C=CC(=O)N1CCC([C@@H]2CCNc3c(C(N)=O)c(-c4ccc(Oc5ccccc5)cc4)nn32)CC1 [Zanubrutinib, (7S)-2-(4-phenoxyphenyl)-7-(1-prop-2-enoylpiperidin-4-yl)-4,5,6,7-tetrahydropyrazolo[1,5-a]pyrimidine-3-carboxamide]
Water solubility [3]: 10.3 µg/mL | log P [5]: 3.5
